Measured values published in US20220211752A1, “METHIONINE AND CYSTEINE DEPRIVATION DIET AND FORMULATIONS TO INCREASE EFFECTIVENESS OF CANCER THERAPY” (THE TRUSTEES OF COLUMBIA UNIVERSITY IN THE CITY OF NEW YORK, priority 2020, published 2022).
Peptide text beside a SMILES is read from it. * marks the point of attachment. Cbz = O=C(OCc1ccccc1)*; CH2F = FC*

Experiments:
MG1 cells [1] = test: Live cell confocal microscopy of Bodipy-C11 lipid peroxidation; type: cell-based, mouse
Experimental: 1.3×10^5 MG1 cells were plated on poly-L-lysine coated 35 mm glass-bottom dishes (MatTek™ life sciences) for 24 hours. Cells were incubated for 30 minutes in basal media (DMEM (Gibco™ 11965092) with 0.5% FBS (Gibco™ 16000044), antibiotic-antimycotic (Thermo Scientific™ 15240096), N2 supplement (Thermo Fisher Scientific™, 17502-048), and 10 ng/ml each of recombinant human PDGF-AA (Peprotech, 100-13A) and FGFb (Peprotech™. 10018B50UG)) media containing 5 μM BODIPY-C11. Media were replaced with fresh basal media and cells were imaged on a Nikon™ A1RMP confocal microscope at 37° C. in a humidified chamber with 5% C02. Time-lapse images were acquired using a 40×/1.3 NA oil immersion objective and focus was maintained using the Perfect Focus™ System. Excitation was achieved using 488 nm and 561 nm laser illumination; emission of the oxidized and reduced forms of BODIPY-C11 was captured using a 525/50 and a 595/50 filter, respectively. At time 0, RSL3 (500 nM) or RSL3 (500 nM)+Ferrostatin (2 μM) were added and images were acquired every 30 seconds for a total of 30 minutes. Images were exported to ImageJ™ for analysis.

mouse glioma cell lines = test: Dose response cell viability, IKE with or without CMD; type: cell-based; conditions: 10 uM Ferrostatin-1
Excerpt: (§1) A basis for the invention that depriving glioma cells of sulfur containing amino acids (cystine and methionine) will result in lower levels of glutathione (which normally protects cells from lipid peroxidation) and therefore would sensitize the glioma cells to ferroptosis inducing drugs. […] Both these effects were rescued by ferrostatin.

MG4 cells = test: Bodipy-C11 flow cytometry, radiation plus CMD; type: cell-based, mouse; conditions: Ferrostatin-1
Excerpt: (§2) Adherent cells were lifted using TrypLE (ThermoFisher™ Scientific).
Radiation is a known ferroptosis inducer. […] Treatment of both mouse glioma cells (MG1 and MG4) and human GBM cells (TS543) is shown.

MG1 cells [2] = test: Bodipy-C11 flow cytometry, IKE with or without CMD; type: cell-based, mouse; conditions: 10 uM Ferrostatin-1
Excerpt: as §2, §1

[3] = system: human diffuse astrocytoma slice culture; test: H2DCFDA flow cytometry of human glioma slice cultures, IKE plus radiation; type: cell-based; conditions: 10 μM IKE, 0 or 2 Gy radiation for 24 hours
Excerpt: To further understand the translational relevance of these findings to human glioma samples, an acute organotypic slice culture model was used. […] The tissue was placed on a Millicell™ cell culture insert in treatment media. This media comprised of DMEM+ Hams-F12 without cysteine or methionine (MyBioSource, MBS652871) or DMEM+ Hams-F12 with cysteine and methione to create the to varied conditions that would undergo radiation or IKE treatment.
Horizontal bars indicate H2DCFDA-positive cell populations.

MG3 cells = test: 384-well dose-response to GPX4 inhibitors with or without CMD; type: cell-based, mouse; conditions: dose response assays, with or without 2 uM Ferrostatin-1
Experimental: (§3) Cell viability was assessed using the Cell-Titer^Glo™ luminescence assay. Murine glioma cells were plated in triplicate at a density of 6,000 cells per well in a 96-well plate (ThermoFisher Scientific™). Twenty-four hours after plating, media was removed and treatment media was added. Viability was assessed 24 hours after treatment. Human glioma cells were plated at a density of 2,000 cells per well. Cells were plated in normal media or cysteine/methionine deprived media. Twenty-four hours after plating, media was changed to begin drug treatment. Forty-eight hours after plating, luminescence was measured.
(§4) Averages across 3 independent experiments are reported. For experiments conducted in 384-well plates, mouse glioma cells were plated at a density of 1,600 cells per well and human glioma cells were plated at a density of 1,000 cells per well. The assays as described above were quantified using Cell-Titer Glo™ (Promega™) ATP based bioluminescence. To determine cell viability, a 50% Cell Titer Glo™ and 50% cell culture medium was added to each well and incubated at room temperature for 10 minutes. Luminescence was assessed on a Promega™ GloMax™ Microplate Reader.

MG1 cells [4] = test: Dose-response of MG1 cells to RSL3 plus cell death inhibitors; type: cell-based, mouse; conditions: 5 uM ZVAD-FMK; 2 uM Nec-1s
Experimental: as §3, §4

[5] = system: human primary glioblastoma; test: H2DCFDA flow cytometry of ex vivo organotypic slice cultures, RSL3 with or without CMD; type: cell-based; conditions: 100 nM RSL3 plus CMD
Experimental: Mice were sacrificed by cervical dislocation.
Slice cultures were dissociated in papain (9.5 mL DPBS, 500 μL papain, 1.67 μL 6 M NaOH, 2 mg L-cysteine, 100 μL DNAse) and incubated in a warm bath shaker at 37° C. for 30 minutes. After centrifugation at 400×g for 5 minutes, the papain was aspirated and slices were resuspended in ice cold PBS and triturated with glass tip Pasteur pipettes. This process was repeated one time and then the cell suspension was resuspended in a 30% sucrose solution and spun at 1000×g for 5 minutes. The cell suspension was resuspended in PBS and stained with Calcein Blue (final concentration 5 μM) and H2DCFDA (final concentration 10 μM), incubated in a water bath at 37° C. for 10 minutes. Suspensions were spun down at 500×g for 5 minutes and resuspended in PBS and taken for flow cytometric analysis on a LSRIII Fortessa™ machine. Cell and Slice culture suspensions were filtered in polystyrene flow tubes (Fisher Scientific™). Data were collected on an LSRIII Fortessa™ flow analyzer and analyzed using FlowJo™ v10.
The slices were treated with RSL3 and assayed via flow cytometry for levels of reactive oxygen species (ROS) using H2DCFDA.

glioma cell lines = test: Cell viability dose-response to RSL3 (Cell-Titer Glo); type: cell-based, mouse, human
Experimental: as §3, §4
To test this, media was adapted for cell culture based on the previous ferroptosis permissive glioma culture methods. […]

CCOC(=O)c1ccc(NC2CCCCC2)c(N)c1 [Ferrostatin-1]
effect on RSL3 induced lipid peroxidation (MG1 cells [1]; 500 nM RSL3 and 2 uM Ferrostatin-1): prevented this lipid peroxidation | rescue of CMD enhanced IKE induced cell death (mouse glioma cell lines): rescued | rescue of lipid peroxidation from radiation plus CMD (MG4 cells): complete rescue | rescue of CMD plus IKE lipid peroxidation (MG1 cells [2]): rescued

CC(C)Oc1ccc(C(=O)Cn2ccnc2)cc1-n1c(CN2CCN(C(=O)COc3ccc(Cl)cc3)CC2)nc2ccccc2c1=O [IKE, imidazole ketone erastin]
H2DCFDA-positive cells, interaction with radiation [3]: synergy of radiation with IKE treatment

Cc1onc(C(=O)N2CCN(C(c3ccc(Cl)cc3)c3ccc(Cl)cc3)CC2)c1[N+](=O)[O-] [ML-210]
ferroptosis in combination with CMD (MG3 cells): synergistic enhancement of ferroptosis with CMD

CN1C(=O)NC(Cc2c[nH]c3c(Cl)cccc23)C1=O (stereo not shown) [Nec-1s]
rescue of RSL3 mediated cell death (MG1 cells [4]): not rescuable

COC(=O)c1ccc([C@@H]2c3[nH]c4ccccc4c3C[C@@H](C(=O)OC)N2C(=O)CCl)cc1 [RSL3]
ferroptosis in combination with CMD (MG3 cells): synergistic enhancement of ferroptosis with CMD | lipid peroxidation (Bodipy-C11 green fluorescence shift) (MG1 cells [1]; 500 nM RSL3): induction of lipid peroxidation | reactive oxygen species (ROS) levels, H2DCFDA [5]: increased ROS to levels equivalent to a high dose of RSL3 (500 nM) | cell viability with CMD plus RSL3 (glioma cell lines; dose response curves, dual treatment (FIG. 30)): stark difference in cell viability with dual treatment | sensitivity to ferroptosis by RSL3 (glioma cell lines; five cell lines assayed, 384-well dose-response): baseline sensitivity to ferroptosis

COC(=O)C[C@H](NC(=O)[C@H](C)NC(=O)[C@@H](NC(=O)OCc1ccccc1)C(C)C)C(=O)CF [ZVAD-FMK] (Cbz-Val-Ala-Asp(OMe)-CH2F)
rescue of RSL3 mediated cell death (MG1 cells [4]): not rescuable
